In series [1] the target is T1, E1 (Homo sapiens, UniProt P22314).
T1 sequence (P22314 1-1058): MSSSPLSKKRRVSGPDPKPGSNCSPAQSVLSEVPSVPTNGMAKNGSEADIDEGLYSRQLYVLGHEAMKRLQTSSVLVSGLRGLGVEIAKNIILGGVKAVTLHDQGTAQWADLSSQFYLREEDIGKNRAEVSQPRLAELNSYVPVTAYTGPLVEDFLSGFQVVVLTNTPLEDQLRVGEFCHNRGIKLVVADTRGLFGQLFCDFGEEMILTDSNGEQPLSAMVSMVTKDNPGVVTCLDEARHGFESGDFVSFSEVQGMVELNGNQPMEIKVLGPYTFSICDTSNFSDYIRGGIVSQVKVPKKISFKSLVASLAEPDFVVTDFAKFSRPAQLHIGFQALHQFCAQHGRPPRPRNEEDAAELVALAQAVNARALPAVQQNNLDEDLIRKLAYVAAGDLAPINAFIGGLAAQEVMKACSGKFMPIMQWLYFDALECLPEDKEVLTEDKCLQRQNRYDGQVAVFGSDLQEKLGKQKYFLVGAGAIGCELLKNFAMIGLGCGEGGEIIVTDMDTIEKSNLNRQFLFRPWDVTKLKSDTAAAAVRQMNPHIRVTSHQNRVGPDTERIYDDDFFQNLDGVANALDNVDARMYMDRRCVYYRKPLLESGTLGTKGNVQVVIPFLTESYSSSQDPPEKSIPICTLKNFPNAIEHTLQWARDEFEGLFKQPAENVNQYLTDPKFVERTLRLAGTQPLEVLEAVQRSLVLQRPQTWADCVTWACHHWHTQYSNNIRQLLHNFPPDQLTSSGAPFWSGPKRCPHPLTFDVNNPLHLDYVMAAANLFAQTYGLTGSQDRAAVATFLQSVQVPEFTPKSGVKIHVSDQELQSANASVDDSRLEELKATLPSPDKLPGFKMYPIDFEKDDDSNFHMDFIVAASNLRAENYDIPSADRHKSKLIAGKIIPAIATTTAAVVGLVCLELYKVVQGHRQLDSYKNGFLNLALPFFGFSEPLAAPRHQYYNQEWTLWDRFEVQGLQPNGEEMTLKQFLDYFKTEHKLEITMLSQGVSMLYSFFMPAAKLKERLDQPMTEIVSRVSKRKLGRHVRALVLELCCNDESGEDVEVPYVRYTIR
The series can be described thus: apparent Km of ubiquitin for E1. Format: biochemical. The settings on record: read-out: apparent Km of Ub for E1. Here is the method: In an HTR-FRET assay, the background FRET increases as the concentrations of Eu and Cy5 increase. In general, to achieve a low background signal, Eu concentrations should be in the low nM range while Cy5 concentrations can be up to 100-200 nM. To determine the optimal concentration of Bio-Ub used in the p27 Ub assay, 80 nM of p27 was ubiquitinated with 0-4 μM of Bio-Ub and diluted 1:4 with a detection mixture containing a final concentration of 5 nM Eu-PRG, 10 nM anti-p27, and 25-125 nM SA-Cy5. 1 uM of Bio-Ub with 125 nM of Cy5-SA gave the best signal-to-background (S/B) ratio (FIG. 12). […] Since the apparent Km of Ub for E1 is about 2 μM, 4 μM of unlabeled ubiquitin was used in the reaction (2×apparent Km). Ubiquitination of p27 in the presence of 4 μM Ub and 1 μM Bio-Ub was very similar to that of p27 in the presence of saturating concentrations of Bio-Ub (28 μM) (FIG. 13).

Series [2] has as its system T2, p27 ubiquitination (E1, E2, E3 SCF^Skp2, Cks1).
T2 construct: His; Strep tag (cleaved yes); GST; made in house; host or cells: Sf9 (His-E1; p27/Cdk2/cyclin E); E. coli (His-UbcH3, Cks1); baculovirus-infected insect cells (SCF-Skp2)
The series can be described thus: p27 ubiquitination assay, plate capture format (DMSO tolerance). Format: biochemical, Human. The source says:
This assay measures the ubiquitination of cell cycle inhibitor p27 in a high-throughput-capable in vitro reconstituted system that mimics the ubiquitination of p27 in vivo. Ubiquitinated p27 is captured using an anti-p27 antibody-coated plate and detected by Europium (Eu)-labeled streptavidin that binds biotinylated ubiquitin. The assay as described below incorporates the addition of a test compound to the ubiquitination reaction.
Assay mix A (see below) contained: 3× concentration ubiquitin buffer (120 mM Tris·HCl pH 7.5, 15 mM MgCl2), 3 mM dithiothreitol, 15 ng/μL E1, 450 ng/μLE2, 15 ng/μL E3, and 12 ng/μL pre-phosphorylated p27.
Starting solution (see below) contained 0.75 mg/mL biotinylated ubiquitin and 0.75 ng/μL Cks1 in assay dilution buffer (30 mM Tris·HCl pH7.5, 1 mM DTT, 19.5% glycerol). Starting solution for negative control contains 0.75 mg/mL biotinylated ubiquitin in assay dilution buffer (30 mM Tris·HCl pH7.5, 1 mM DTT, 19.5% glycerol).
The capture plates were coated as follows. […]
The ubiquitination reaction was run as follows: 5 μL of a test compound in 6% dimethylsulfoxide (DMSO) was added to each well of a V-bottom plate. […] 25 μL enhancement solution was added per well, and the plates were read to determine the amount of time-resolved fluorescence emission at 615 nm for Europium chelate. […]

The test system of series [3] is p27 ubiquitination (E1, E2, E3 SCF^Skp2, Cks1). The settings on record: reaction includes 5 mM MgCl2.
Excerpt: A homogenous, time-resolved fluorescence resonance energy transfer (HTR-FRET) assay was developed for high throughput screening of compounds that block p27 ubiquitination in vitro. In this assay, p27 is modified with a mixture of ubiquitin (Ub) and biotinylated ubiquitin (Bio-Ub) in the presence of E1, E2, E3 and Cks1 (FIG. 11). A rabbit anti-phospho-p27 antibody and Lance Eu labeled Protein G (Eu-PRG) were used as a donor and Cy5-labeled streptavidin (Cy5-SA or Dylite-SA) is used as an acceptor. Ubiquitinated p27 is detected by FRET signal generated between Eu and Cy5.
In this format, Bio-Ub is used as a tracer to label ubiquitinated p27. Lance Eu-labeled Protein G (Eu-PRG) coupled to anti-phospho-p27 is used as the FRET donor, and SA-Cy5 is used as the FRET acceptor. The FRET signal is measured as the ratio of fluorescence emission of Cy5 at 665 nm over that of Eu at 620 nm after excitation of Eu at 340 nm.
Next, stopping conditions for the p27 ubiquitination were determined.
Assay Procedures: • 1) Prepare Starting solutions and incubate at room temperature for 20˜30 min Start+Cks1: 12 μM Ub, 3 μM Bio-Ub, and 1.875 ng/μl (187.5 nM) Cks1 in assay dilution buffer. Start−Cks1: 12 μM Ub and 3 μM Bio-Ub in assay dilution buffer. • 2) Prepare Assay mix A as indicated in Table 3 • 3) Set up reaction: In an assay plate, add 5 μl/well of Assay mix A, compound in 6% DMSO and 0.03% Brij35 (30 μg/ml; final concentration at 10 μg/ml), and Starting solutions. The total assay volume is 15 μl. Incubate at room temperature (˜23° C.-25° C.) for 1 hour. • 4) Stop the reaction with the addition of 15 μl/well of Stopping solution (40 mM EDTA, 0.1% Tween 20, 250 nM Cy5, 2 nM Eu-PRG, and 8 nM anti-phospho-p27 in PBS)

Where two headings read alike, the source gives them in different places.

ubiquitin: the Km in series [1] was about 2 µM.

On to `C[S+](C)[O-]` [DMSO, dimethylsulfoxide], for which the “p27 ubiquitination activity remained” value in series [2] (2% DMSO, titration between 0 and 10% DMSO) is listed as “approximately 60%”. Besides, the p27 ubiquitination result in series [2] (above 15% (v/v) of DMSO, initial titration) is recorded as “nearly completely lost”.

As to `O=C(O)CN(CCN(CC(=O)O)CC(=O)O)CC(=O)O` [EDTA], the “effect on p27 ubiquitination” value in series [3] (5 mM EDTA alone) is recorded as “no effect”. Also, in series [3] (10 mM EDTA), the p27 ubiquitination entry is “only partially inhibited”. Moreover, the “Ubiquitination of p27” value in series [3] (20 mM EDTA, data not shown) is on record as “completely inhibited”.

The Km is the concentration of substrate that gives half-maximal velocity.

The record behind these values is patent US20060194262A1, “P27 ubiquitination assay and methods of use” (priority 2004, published 2006).
